From patent publication US20250114286A1, “METHOD FOR STABILIZING CERAMIDE AND COSMETIC COMPOSITION COMPRISING STABILIZED CERAMIDE” (COSMECCA KOREA Co., Ltd., priority 2023, published 2025) come the findings set out here.

In one test the test system is AQP3. Put plainly: Moisturizing efficacy: AQP3 mRNA expression by qRT-PCR in UVB-irradiated HDFa cells. Format: cell-based, Human. Conditions: UVB 15 mJ/cm^2, positive control at 0.01%. How it is done:
In order to confirm the moisturizing efficacy of ceramide and bioactive substance-containing nanoparticle capsule, the effect on AQP3 expression was evaluated. After inoculating Human dermal fibroblast (HDFa) cell lines, they were cultured at 37° C. for 24 hours under 5% CO2 in Fibroblast Basal Medium (Medium 106) containing 100 IU/mL penicillin and 100 μg/mL streptomycin. The medium of each well was removed and replaced with fresh serum-free medium. Each well was subjected to pretreatment for 4 hours by administering the samples corresponding to Example 1 and Comparative Examples 1 and 2 at each concentration. 15 mJ/cm^2 UVB was irradiated to each well plate by a UVB irradiation device (vilber loumet, France). The sample was treated with the diluted serum-free medium, and then further cultured for 24 hours. At this time, a negative control was treated with PBS, and a positive control was treated with Hyaluronic acid at 0.01%. After the cell culture was completed, the cells were lysed using Ribo Ex™ Total RNA Isolation Solution (GeneAll Biotechnology, Korea) and scraper, and then 0.2 mL chloroform (Sigma-Aldrich, USA) was added thereto to perform centrifugation (12,000 rpm, 4° C., 30 minutes). […]
For orientation: Real-time PCR tracks product formation cycle by cycle.

Test [1] can be described thus: DPPH radical scavenging activity test. Format: biochemical. Conditions: positive control at 0.01%. The procedure:
In order to confirm the anti-oxidation efficacy of ceramide and bioactive material-containing nanoparticle capsules, a DPPH radical scavenging activity test was conducted. The DPPH radical scavenging activity was measured by the reducing power of the sample relative to the DPPH radical. A 0.4 mM solution was prepared by dissolving DPPH (1,1-Diphenyl-2-picrylhydrazyl) reagent in ethanol. Then 100 μL of the solution of each sample corresponding to Example 1, Comparative Examples 1, and 2, or positive control BHT (Butylated hydroxyl toluene or 2,6-Di-tert-butyl-p-cresol) was dissolved in ethanol, was added to 100 μL of the 0.4 mM DPPH solution in a 96 well plate and mixed. At this time, ethanol was treated as a negative control, and after mixing, the mixture reacted at 37° C. for 30 minutes. Absorbance was measured at 517 nm using ELISA reader, and the DPPH radical scavenging ability (%) of the sample or BHT as a positive control was calculated using the following formula.
DPPH radical scavenging ability (%)={1−(absorbance of positive control or sample/absorbance of control)}×100
Background: Loss of DPPH colour is used to gauge radical scavenging.

On to Hyaluronic acid, for which the “Relative AQP3 expression (% of control)” value in the test with AQP3 is on record as 149.52 % of control.

Consider `Cc1cc(C(C)(C)C)c(O)c(C(C)(C)C)c1` [BHT, 2,6-Di-tert-butyl-p-cresol], for which the “DPPH radical scavenging ability (%)” value in test [1] worked out at 62.08%.
